These are literature values, as cited in patent US7129249B2, “Heterocyclic amide derivatives as inhibitors of glycogen phoshorylase” (AstraZeneca AB, priority 2002, dated 2006).

One series concerns conscious dogs. As to conditions: following a glucagon challenge.
A further series has as its system db/db and ob/ob mice. As to conditions: db/db and ob/ob mice following treatment.

With `CCN1C(C)=C(C(=O)OC(C)C)C(c2ccccc2Cl)C2=C1COC2=O` (centres unmarked) [Bay R 3401], in the series on conscious dogs, the arterial plasma glucose result is “reduced significantly” and the hepatic glucose output entry is “reduced significantly”.
Regarding `CN(C)C(=O)[C@H](O)[C@H](Cc1ccccc1)NC(=O)c1cc2cc(Cl)ccc2[nH]1` [CP91149], in the series with hepatocytes, the glucagon stimulated glycogenolysis result was “reduce” and the glucose output entry is “reduce”. Further, the plasma glucose concentration entry in the series with db/db and ob/ob mice is given as “reduced, in a dose related manner”.
Consider `O=C(N[C@@H](Cc1ccc(F)cc1)C(=O)N1CCC(O)CC1)c1cc2cc(Cl)ccc2[nH]1` [CP320626], for which, in the series on hepatocytes, the glucagon stimulated glycogenolysis result is given as “reduce” and the glucose output entry was “reduce”. Also, in the series on db/db and ob/ob mice, the plasma glucose concentration entry is reported as “reduced, in a dose related manner”.
